Measured values from patent US20240158392A1 (Janssen Biotech, Inc., priority 2021, published 2024).
pIC50: −log10 of the molar value.

target: SIK2 (Homo sapiens, UniProt Q9H0K1); assay: SIK2 Enzymatic Assay High Version 2 (High ATP); type: biochemical; conditions: not given
Summary of the method: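 At room temperature, enzyme (6 nM, 2× final) was preincubated with compound for 30 min, then 6 mM ATP and 400 μM HDAC5tide (both 2× final) were added for 2 h. ADP formed was measured by ADP-Glo Max (2 h reagent, 1 h detection) using luminescence.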

SIK2, sequence (Q9H0K1 whole entry, species assumed): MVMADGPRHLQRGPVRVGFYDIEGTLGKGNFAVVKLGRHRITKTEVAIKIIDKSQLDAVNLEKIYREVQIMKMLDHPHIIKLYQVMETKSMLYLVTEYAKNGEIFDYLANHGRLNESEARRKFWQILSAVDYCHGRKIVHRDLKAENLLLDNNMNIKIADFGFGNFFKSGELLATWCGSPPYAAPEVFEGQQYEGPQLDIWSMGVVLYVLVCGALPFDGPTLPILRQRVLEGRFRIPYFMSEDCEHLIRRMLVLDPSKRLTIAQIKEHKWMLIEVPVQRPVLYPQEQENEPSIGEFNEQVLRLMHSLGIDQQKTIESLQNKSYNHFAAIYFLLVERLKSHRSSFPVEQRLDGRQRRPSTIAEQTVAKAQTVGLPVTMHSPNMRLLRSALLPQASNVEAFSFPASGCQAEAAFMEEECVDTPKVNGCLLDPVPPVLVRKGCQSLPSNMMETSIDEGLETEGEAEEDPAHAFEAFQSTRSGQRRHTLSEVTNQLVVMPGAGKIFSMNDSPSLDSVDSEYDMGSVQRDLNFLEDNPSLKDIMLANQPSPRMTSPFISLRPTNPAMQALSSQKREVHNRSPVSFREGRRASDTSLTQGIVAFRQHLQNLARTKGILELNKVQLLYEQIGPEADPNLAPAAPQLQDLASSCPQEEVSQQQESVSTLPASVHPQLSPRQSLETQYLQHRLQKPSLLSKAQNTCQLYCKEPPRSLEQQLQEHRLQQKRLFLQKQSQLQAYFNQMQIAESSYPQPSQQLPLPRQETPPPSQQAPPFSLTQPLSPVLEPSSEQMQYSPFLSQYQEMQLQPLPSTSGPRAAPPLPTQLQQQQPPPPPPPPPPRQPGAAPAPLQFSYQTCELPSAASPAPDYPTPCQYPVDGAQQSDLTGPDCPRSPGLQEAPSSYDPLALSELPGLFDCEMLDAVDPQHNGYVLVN

SMILES	pIC50
Cc1cc(-c2ccn3nc(Nc4cc(C)nc(C)n4)cc3c2)c(OC[C@H]2CCN2C)cn1 [Example 527, N-(2,6-dimethylpyrimidin-4-yl)-5-[2-methyl-5-[[(2R)-1-methylazetidin-2-yl]methoxy]-4-pyridyl]pyrazolo[1,5-a]pyridin-2-amine]	8.09
Cc1cnc(Nc2cc3cc(-c4cc(C)ncc4O[C@@H]4[C@@H]5CO[C@H]4CN5)ccn3n2)cn1 [Example 528, 5-[2-methyl-5-[[(1S,4S,7R)-2-oxa-5-azabicyclo[2.2.1]heptan-7-yl]oxy]-4-pyridyl]-N-(5-methylpyrazin-2-yl)pyrazolo[1,5-a]pyridin-2-amine]	7.19
Cc1cc(-c2ccn3nc(NC(=O)C4CC4)cc3c2)c(OC[C@H]2CCN2CCF)cn1 [Example 529, N-[5-[5-[[(2R)-1-(2-fluoroethyl)azetidin-2-yl]methoxy]-2-methyl-4-pyridyl]pyrazolo[1,5-a]pyridin-2-yl]cyclopropanecarboxamide]	9.02
CCN1[C@@H]2COC[C@H]1C[C@@H](Oc1cnc(C)cc1-c1ccn3nc(Nc4ccc(C(=O)NC)cn4)cc3c1)C2 [Example 530, 6-[[5-[5-[[(1S,5R)-9-ethyl-3-oxa-9-azabicyclo[3.3.1]nonan-7-yl]oxy]-2-methyl-4-pyridyl]pyrazolo[1,5-a]pyridin-2-yl]amino]-N-methyl-pyridine-3-carboxamide]	8.63
CNC(=O)c1ccc(Nc2cc3cc(-c4cc(C)ncc4O[C@H]4C[C@H]5COC[C@@H](C4)N5C(C)C)ccn3n2)nc1 [Example 531, 6-[[5-[5-[[(1S,5R)-9-isopropyl-3-oxa-9-azabicyclo[3.3.1]nonan-7-yl]oxy]-2-methyl-4-pyridyl]pyrazolo[1,5-a]pyridin-2-yl]amino]-N-methyl-pyridine-3-carboxamide]	8.84
CNC(=O)c1ccc(Nc2cc3cc(-c4cc(C)ncc4O[C@H]4C[C@H]5COC[C@@H](C4)N5CC(C)(C)O)ccn3n2)nc1 [Example 532, 6-[[5-[5-[[(1S,5R)-9-(2-hydroxy-2-methyl-propyl)-3-oxa-9-azabicyclo[3.3.1]nonan-7-yl]oxy]-2-methyl-4-pyridyl]pyrazolo[1,5-a]pyridin-2-yl]amino]-N-methyl-pyridine-3-carboxamide]	7.87
Cc1cc(-c2ccn3nc(NC(=O)C4CC4)cc3c2)c(OC[C@@H]2CCCN2C)cn1 [Example 572, N-[5-[2-methyl-5-[[(2S)-1-methylpyrrolidin-2-yl]methoxy]-4-pyridyl]pyrazolo[1,5-a]pyridin-2-yl]cyclopropanecarboxamide]	7.10
Cc1cc(-c2ccn3nc(NC(=O)C4CC4)cc3c2)c(OC[C@@H]2CCN2CCF)cn1 [Example 573, N-[5-[5-[[(2S)-1-(2-fluoroethyl)azetidin-2-yl]methoxy]-2-methyl-4-pyridyl]pyrazolo[1,5-a]pyridin-2-yl]cyclopropanecarboxamide]	7.13
Cc1cc(-c2ccn3nc(NC(=O)C4CC4)cc3c2)c(OC[C@H]2CCN2C2CC2)cn1 [Example 574, N-[5-[5-[[(2R)-1-cyclopropylazetidin-2-yl]methoxy]-2-methyl-4-pyridyl]pyrazolo[1,5-a]pyridin-2-yl]cyclopropanecarboxamide]	7.10
[2H]C([2H])([2H])N1CC[C@H]1COc1cnc(C)cc1-c1ccn2nc(NC(=O)C3CC3)cc2c1 [Example 575, N-[5-[2-methyl-5-[[(2S)-1-(trideuteriomethyl)azetidin-2-yl]methoxy]-4-pyridyl]pyrazolo[1,5-a]pyridin-2-yl]cyclopropanecarboxamide]	7.15

same assay, conditions: enzyme 6 nM, 6 mM ATP and 400 μM HDAC5tide (each 2× final concentration); 30 minutes pre-incubation, 2 hours; ADP-Glo Max luminescence; read-out: SIK2 high ATP IC50 (μM) (Test Example 2)

SMILES	IC50 [µM]
Cc1cc(-c2ccn3nc(Nc4cc(C)nc(C(F)(F)F)n4)cc3c2)c(OCC(C)(C)O)cn1 [Example 537, 2-methyl-1-[[6-methyl-4-[2-[[6-methyl-2-(trifluoromethyl)pyrimidin-4-yl]amino]pyrazolo[1,5-a]pyridin-5-yl]-3-pyridyl]oxy]propan-2-ol]	0.0241
Cc1cc(-c2ccn3nc(Nc4cc(C)nc(C)n4)cc3c2)c(O[C@H]2C[C@H](N)C2)cn1 [Example 545, 5-(5-((1r,3r)-3-aminocyclobutoxy)-2-methylpyridin-4-yl)-N-(2,6-dimethylpyrimidin-4-yl)pyrazolo[1,5-a]pyridin-2-amine]	0.0134

The next lines start with the values.

IC50 [µM]	SMILES
0.0129	Cc1cc(-c2ccn3nc(Nc4cc(C)nc(C)n4)cc3c2)c(OC[C@H]2C[C@H](O)C2)cn1 [Example 538, (1r,3r)-3-(((4-(2-((2,6-dimethylpyrimidin-4-yl)amino)pyrazolo[1,5-a]pyridin-5-yl)-6-methylpyridin-3-yl)oxy)methyl)cyclobutan-1-ol]
0.0471	Cc1cnc(Nc2cc3cc(-c4cc(C)ncc4OCC(C)(C)O)ccn3n2)cn1 [Example 541, 2-methyl-1-[[6-methyl-4-[2-[(5-methylpyrazin-2-yl)amino]pyrazolo[1,5-a]pyridin-5-yl]-3-pyridyl]oxy]propan-2-ol]
0.0239	Cc1cc(-c2ccn3nc(Nc4cc(C)nc(C)n4)cc3c2)c(OCC2(C)COC2)cn1 [Example 546, N-(2,6-dimethylpyrimidin-4-yl)-5-[2-methyl-5-[(3-methyloxetan-3-yl)methoxy]-4-pyridyl]pyrazolo[1,5-a]pyridin-2-amine]
0.0055	Cc1cc(-c2ccn3nc(Nc4cc(C)nc(C)n4)cc3c2)c(OC2CCS(=O)(=O)CC2)cn1 [Example 550, N-(2,6-dimethylpyrimidin-4-yl)-5-[5-(1,1-dioxothian-4-yl)oxy-2-methyl-4-pyridyl]pyrazolo[1,5-a]pyridin-2-amine]
0.00832	Cc1cc(-c2ccn3nc(Nc4cc(C)nc(C)n4)cc3c2)c(OC2CCC(S(C)(=O)=O)CC2)cn1 (stereo not drawn) [Example 551, N-(2,6-dimethylpyrimidin-4-yl)-5-[2-methyl-5-(4-methylsulfonylcyclohexoxy)-4-pyridyl]pyrazolo[1,5-a]pyridin-2-amine]
0.00378	Cc1cc(-c2ccn3nc(Nc4cc(C)nc(C)n4)cc3c2)c(OC2CCC(C#N)CC2)cn1 (stereo not drawn) [Example 552, 4-[[4-[2-[(2,6-dimethylpyrimidin-4-yl)amino]pyrazolo[1,5-a]pyridin-5-yl]-6-methyl-3-pyridyl]oxy]cyclohexanecarbonitrile]
0.0101	Cc1cc(-c2ccn3nc(Nc4cc(C)nc(C)n4)cc3c2)c(OCc2ccccc2OC(F)F)cn1 [Example 553, 5-[5-[[2-(difluoromethoxy)phenyl]methoxy]-2-methyl-4-pyridyl]-N-(2,6-dimethylpyrimidin-4-yl)pyrazolo[1,5-a]pyridin-2-amine]
0.0275	Cc1cc(-c2ccn3nc(Nc4cc(C)nc(C)n4)cc3c2)c(OC[C@H](C)C(C)(C)O)cn1 [Example 554, (3S)-4-[[4-[2-[(2,6-dimethylpyrimidin-4-yl)amino]pyrazolo[1,5-a]pyridin-5-yl]-6-methyl-3-pyridyl]oxy]-2,3-dimethyl-butan-2-ol]
0.00997	Cc1cc(-c2ccn3nc(Nc4cc(C)nc(C)n4)cc3c2)c(OCCC(C)(C)O)cn1 [Example 555, 4-[[4-[2-[(2,6-dimethylpyrimidin-4-yl)amino]pyrazolo[1,5-a]pyridin-5-yl]-6-methyl-3-pyridyl]oxy]-2-methyl-butan-2-ol]
0.0371	Cc1cc(-c2ccn3nc(Nc4cc(C)nc(C)n4)cc3c2)c(O[C@H]2CC[C@@H](C#N)CC2)cn1 [Example 556, (1s,4s)-4-((4-(2-((2,6-dimethylpyrimidin-4-yl)amino)pyrazolo[1,5-a]pyridin-5-yl)-6-methylpyridin-3-yl)oxy)cyclohexane-1-carbonitrile]
0.0494	Cc1cc(-c2ccn3nc(Nc4cc(C)nc(C)n4)cc3c2)c(OCCN)cn1 [Example 557, 5-[5-(2-aminoethoxy)-2-methyl-4-pyridyl]-N-(2,6-dimethylpyrimidin-4-yl)pyrazolo[1,5-a]pyridin-2-amine]
0.0695	Cc1cc(-c2ccn3nc(Nc4cc(C)nc(C)n4)cc3c2)c(OC[C@H](O)C2CC2)cn1 [Example 558, (1R)-1-cyclopropyl-2-[[4-[2-[(2,6-dimethylpyrimidin-4-yl)amino]pyrazolo[1,5-a]pyridin-5-yl]-6-methyl-3-pyridyl]oxy]ethanol]
0.00686	Cc1cc(-c2ccn3nc(Nc4cc(C)nc(C)n4)cc3c2)c(OC[C@@H](O)C2CC2)cn1 [Example 559, (1S)-1-cyclopropyl-2-[[4-[2-[(2,6-dimethylpyrimidin-4-yl)amino]pyrazolo[1,5-a]pyridin-5-yl]-6-methyl-3-pyridyl]oxy]ethanol]
0.0616	Cc1cc(-c2ccn3nc(Nc4cc(C)nc(C)n4)cc3c2)c(OCC2(C#N)CC2)cn1 [Example 560, 1-[[4-[2-[(2,6-dimethylpyrimidin-4-yl)amino]pyrazolo[1,5-a]pyridin-5-yl]-6-methyl-3-pyridyl]oxymethyl]cyclopropanecarbonitrile]
0.0619	Cc1cc(-c2ccn3nc(Nc4cc(C)c(=O)n(C5CC5)n4)cc3c2)c(OC[C@@H]2COCCO2)cn1 [Example 561, 2-cyclopropyl-6-[[5-[5-[[(2S)-1,4-dioxan-2-yl]methoxy]-2-methyl-4-pyridyl]pyrazolo[1,5-a]pyridin-2-yl]amino]-4-methyl-pyridazin-3-one]
0.038	N#CCN1CC[C@@H](COc2cnc(C#N)cc2-c2ccn3nc(NC(=O)C4CC4)cc3c2)C1 [Example 563, N-[5-[2-cyano-5-[[(3R)-1-(cyanomethyl)pyrrolidin-3-yl]methoxy]-4-pyridyl]pyrazolo[1,5-a]pyridin-2-yl]cyclopropanecarboxamide]
0.00339	Cn1ccc(Nc2cc3cc(-c4cc(C#N)cnc4OC[C@@H]4CNCCO4)ccn3n2)n1 [Example 564, 5-[2-[(1-methylpyrazol-3-yl)amino]pyrazolo[1,5-a]pyridin-5-yl]-6-[[(2S)-morpholin-2-yl]methoxy]pyridine-3-carbonitrile]
0.0943	Cc1cc(-c2ccn3nc(NC(=O)C4CC4)cc3c2)c(OC[C@@H](N)C(F)(F)F)cn1 [Example 570, N-[5-[5-[(2R)-2-amino-3,3,3-trifluoro-propoxy]-2-methyl-4-pyridyl]pyrazolo[1,5-a]pyridin-2-yl]cyclopropanecarboxamide]
